Measured values from PubChem BioAssay (NCI).
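Dose response: 5 concentrations. Exposure: 48 h. Format: 96-well plates. Endpoint: linear interpolation; highest concentration if not reached. The concentration for full growth arrest is given as TGI.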

test system: UACC-62 melanoma; assay: DTP human tumour cell line panel, 48 h

| SMILES | TGI |
| --- | --- |
| CC(=O)OCC1OC(n2c(=S)[nH]c(-c3ccccc3)c(C#N)c2=O)C(OC(C)=O)C(OC(C)=O)C1OC(C)=O (stereo not given) | > 100 µM |
| CCOC(=O)c1c(SCCN2CCCC2)n(-c2ccccc2)c(=S)n(-c2ccccc2)c1=O | 7.29 µM |
| COC(=O)CCCC(=O)C(=Nc1c(Cl)cccc1Cl)NNc1ccc(Cl)cc1 | > 100 µM |
| O=[N+]([O-])C(=C(Sc1ccccc1)Sc1ccccc1)C(Cl)=C(Cl)Cl | 1.94 µM |

test system: UACC-257 melanoma; assay: DTP human tumour cell line panel, 48 h

| SMILES | TGI |
| --- | --- |
| O=C1C(Cl)N(c2ccccc2)C1c1c[nH]c2ccccc12 (stereo not given) | > 100 µM |
| COc1cc2c(NCCCCCCO[N+](=O)[O-])ncnc2c(OC)c1OC | 36.5 µM |
| O=C(O)c1cc(S(=O)(=O)N=NC=C2c3ccccc3N(O)c3ccccc32)ccc1O | 88.2 µM |
| CC(=O)OCC1OC(n2c(=S)[nH]c(-c3ccccc3)c(C#N)c2=O)C(OC(C)=O)C(OC(C)=O)C1OC(C)=O (stereo not given) | > 100 µM |
| CCOC(=O)c1c(SCCN2CCCC2)n(-c2ccccc2)c(=S)n(-c2ccccc2)c1=O | 3.34 µM |
| COC(=O)CCCC(=O)C(=Nc1c(Cl)cccc1Cl)NNc1ccc(Cl)cc1 | > 100 µM |
| O=[N+]([O-])C(=C(Sc1ccccc1)Sc1ccccc1)C(Cl)=C(Cl)Cl | 1.1 µM |

test system: SF-295 CNS; assay: DTP human tumour cell line panel, 48 h

| SMILES | TGI |
| --- | --- |
| O=C1C(Cl)N(c2ccccc2)C1c1c[nH]c2ccccc12 (stereo not given) | > 100 µM |
| COc1cc2c(NCCCCCCO[N+](=O)[O-])ncnc2c(OC)c1OC | 58.8 µM |
| O=C(O)c1cc(S(=O)(=O)N=NC=C2c3ccccc3N(O)c3ccccc32)ccc1O | 20.1 µM |
| CC(=O)OCC1OC(n2c(=S)[nH]c(-c3ccccc3)c(C#N)c2=O)C(OC(C)=O)C(OC(C)=O)C1OC(C)=O (stereo not given) | > 100 µM |
| CCOC(=O)c1c(SCCN2CCCC2)n(-c2ccccc2)c(=S)n(-c2ccccc2)c1=O | > 75.7 µM |
| COC(=O)CCCC(=O)C(=Nc1c(Cl)cccc1Cl)NNc1ccc(Cl)cc1 | > 100 µM |
| O=[N+]([O-])C(=C(Sc1ccccc1)Sc1ccccc1)C(Cl)=C(Cl)Cl | 28.3 µM |

test system: RPMI-8226 leukemia; assay: DTP human tumour cell line panel, 48 h

| SMILES | TGI |
| --- | --- |
| O=C1C(Cl)N(c2ccccc2)C1c1c[nH]c2ccccc12 (stereo not given) | > 100 µM |
| COc1cc2c(NCCCCCCO[N+](=O)[O-])ncnc2c(OC)c1OC | 32.2 µM |
| O=C(O)c1cc(S(=O)(=O)N=NC=C2c3ccccc3N(O)c3ccccc32)ccc1O | 76.6 µM |
| CC(=O)OCC1OC(n2c(=S)[nH]c(-c3ccccc3)c(C#N)c2=O)C(OC(C)=O)C(OC(C)=O)C1OC(C)=O (stereo not given) | > 100 µM |
| CCOC(=O)c1c(SCCN2CCCC2)n(-c2ccccc2)c(=S)n(-c2ccccc2)c1=O | 5.87 µM |
| COC(=O)CCCC(=O)C(=Nc1c(Cl)cccc1Cl)NNc1ccc(Cl)cc1 | > 100 µM |
| O=[N+]([O-])C(=C(Sc1ccccc1)Sc1ccccc1)C(Cl)=C(Cl)Cl | 0.0712 µM |

test system: IGROV1 ovarian; assay: DTP human tumour cell line panel, 48 h

| SMILES | TGI |
| --- | --- |
| O=C1C(Cl)N(c2ccccc2)C1c1c[nH]c2ccccc12 (stereo not given) | > 100 µM |
| COc1cc2c(NCCCCCCO[N+](=O)[O-])ncnc2c(OC)c1OC | > 84.4 µM |
| O=C(O)c1cc(S(=O)(=O)N=NC=C2c3ccccc3N(O)c3ccccc32)ccc1O | 83.1 µM |
| CC(=O)OCC1OC(n2c(=S)[nH]c(-c3ccccc3)c(C#N)c2=O)C(OC(C)=O)C(OC(C)=O)C1OC(C)=O (stereo not given) | > 100 µM |
| CCOC(=O)c1c(SCCN2CCCC2)n(-c2ccccc2)c(=S)n(-c2ccccc2)c1=O | 4.47 µM |
| COC(=O)CCCC(=O)C(=Nc1c(Cl)cccc1Cl)NNc1ccc(Cl)cc1 | > 100 µM |
| O=[N+]([O-])C(=C(Sc1ccccc1)Sc1ccccc1)C(Cl)=C(Cl)Cl | 2.95 µM |

test system: SNB-78 CNS; assay: DTP human tumour cell line panel, 48 h

| SMILES | TGI |
| --- | --- |
| O=C(O)c1cc(S(=O)(=O)N=NC=C2c3ccccc3N(O)c3ccccc32)ccc1O | 96.5 µM |

test system: M14 melanoma; assay: DTP human tumour cell line panel, 48 h

| SMILES | TGI |
| --- | --- |
| O=C1C(Cl)N(c2ccccc2)C1c1c[nH]c2ccccc12 (stereo not given) | > 100 µM |
| COc1cc2c(NCCCCCCO[N+](=O)[O-])ncnc2c(OC)c1OC | 36.8 µM |
| O=C(O)c1cc(S(=O)(=O)N=NC=C2c3ccccc3N(O)c3ccccc32)ccc1O | 79.2 µM |
| CC(=O)OCC1OC(n2c(=S)[nH]c(-c3ccccc3)c(C#N)c2=O)C(OC(C)=O)C(OC(C)=O)C1OC(C)=O (stereo not given) | > 100 µM |
| CCOC(=O)c1c(SCCN2CCCC2)n(-c2ccccc2)c(=S)n(-c2ccccc2)c1=O | 3.25 µM |
| COC(=O)CCCC(=O)C(=Nc1c(Cl)cccc1Cl)NNc1ccc(Cl)cc1 | > 100 µM |
| O=[N+]([O-])C(=C(Sc1ccccc1)Sc1ccccc1)C(Cl)=C(Cl)Cl | 1.17 µM |

test system: MDA-N; assay: DTP human tumour cell line panel, 48 h

| SMILES | TGI |
| --- | --- |
| COc1cc2c(NCCCCCCO[N+](=O)[O-])ncnc2c(OC)c1OC | 56.4 µM |
| CC(=O)OCC1OC(n2c(=S)[nH]c(-c3ccccc3)c(C#N)c2=O)C(OC(C)=O)C(OC(C)=O)C1OC(C)=O (stereo not given) | > 100 µM |
| CCOC(=O)c1c(SCCN2CCCC2)n(-c2ccccc2)c(=S)n(-c2ccccc2)c1=O | 6.01 µM |
| COC(=O)CCCC(=O)C(=Nc1c(Cl)cccc1Cl)NNc1ccc(Cl)cc1 | > 100 µM |
| O=[N+]([O-])C(=C(Sc1ccccc1)Sc1ccccc1)C(Cl)=C(Cl)Cl | 0.675 µM |

test system: BT-549 breast; assay: DTP human tumour cell line panel, 48 h

| SMILES | TGI |
| --- | --- |
| COc1cc2c(NCCCCCCO[N+](=O)[O-])ncnc2c(OC)c1OC | 56 µM |
| CC(=O)OCC1OC(n2c(=S)[nH]c(-c3ccccc3)c(C#N)c2=O)C(OC(C)=O)C(OC(C)=O)C1OC(C)=O (stereo not given) | > 100 µM |
| CCOC(=O)c1c(SCCN2CCCC2)n(-c2ccccc2)c(=S)n(-c2ccccc2)c1=O | 13.9 µM |
| COC(=O)CCCC(=O)C(=Nc1c(Cl)cccc1Cl)NNc1ccc(Cl)cc1 | > 100 µM |
| O=[N+]([O-])C(=C(Sc1ccccc1)Sc1ccccc1)C(Cl)=C(Cl)Cl | 4.61 µM |
